What was measured:
Experiment in all cases: Test C preemergence
Assay type in all cases: in vivo
[1] = system: Sunflower; settings: Rate 250 g/ha, scale 0 to 100, 0 no effect, 100 complete control
[2] = system: Sunflower; settings: Rate 62 g/ha, scale 0 to 100
[3] = system: Nightshade; settings: Rate 500 g/ha, visual evaluation after 12 to 14 days
[4] = system: kochia (Kochia scoparia); settings: for Plant response rating (0 to 100), Kochia: Rate 500 g/ha, visual evaluation after 12 to 14 days
Outline: (§1)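 Pre- and postemergence treatments used a non-phytotoxic solvent/surfactant formulation; post-treated plants measured 2 to 18 cm. Greenhouse hold 12–14 d; % control estimated visually relative to controls.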

[5] = system: velvetleaf (Abutilon theophrasti); settings: for Plant response rating (0 to 100), Velvetleaf: Rate 500 g/ha, visual evaluation after 12 to 14 days
Outline: as §1

[6] = system: lambsquarters (Chenopodium album); settings: for Plant response rating (0 to 100), Lambsquarters: Rate 500 g/ha, visual evaluation after 12 to 14 days
Outline: as §1

[7] = system: bermudagrass (Cynodon dactylon); settings: for Plant response rating (0 to 100 where 0 is no effect and 100 is complete control), Bermudagrass: Rate 500 g/ha, visual evaluation after 12 to 14 days
Outline: as §1

[8] = system: Surinam grass (Brachiaria decumbens); settings: for Plant response rating (0 to 100), Surinam grass: Rate 500 g/ha, visual evaluation after 12 to 14 days
Outline: as §1

[9] = system: goosegrass (Eleusine indica); settings: for Plant response rating (0 to 100), Goosegrass: Rate 500 g/ha, visual evaluation after 12 to 14 days
Outline: as §1

[10] = system: cocklebur (Xanthium strumarium)
Outline: as §1

[11] = system: johnsongrass (Sorghum halepense); settings: for Plant response rating (0 to 100), Johnsongrass: Rate 500 g/ha, visual evaluation after 12 to 14 days
Outline: as §1

[12] = system: Sunflower; settings: Rate 125 g/ha; scale 0 to 100, 0 no effect, 100 complete control
[13] = system: crabgrass (Digitaria sanguinalis); settings: for Plant response rating (0 to 100), Crabgrass: Rate 500 g/ha, visual evaluation after 12 to 14 days
Outline: as §1

[14] = system: soybean (Glycine max); settings: for Plant response rating (0 to 100), Soybean: Rate 500 g/ha, visual evaluation after 12 to 14 days
Outline: as §1

[15] = system: woolly cupgrass (Eriochloa villosa); settings: for Plant response rating (0 to 100), Cupgrass, Woolly: Rate 500 g/ha, visual evaluation after 12 to 14 days
Outline: as §1

[16] = system: common ragweed (Ambrosia elatior); settings: for Plant response rating (0 to 100), Ragweed, Common: Rate 500 g/ha, visual evaluation after 12 to 14 days
Outline: as §1

[17] = system: giant foxtail (Setaria faberii); settings: for Plant response rating (0 to 100), Foxtail, Giant: Rate 500 g/ha, visual evaluation after 12 to 14 days
Outline: as §1

[18] = system: corn (Zea mays); settings: for Plant response rating (0 to 100), Corn: Rate 500 g/ha, visual evaluation after 12 to 14 days
Outline: as §1

[19] = system: yellow nutsedge (Cyperus esculentus); settings: for Plant response rating (0 to 100), Nutsedge: Rate 500 g/ha, visual evaluation after 12 to 14 days
Outline: as §1

[20] = system: morningglory (Ipomoea hederacea); settings: for Plant response rating (0 to 100), Morningglory: Rate 500 g/ha, visual evaluation after 12 to 14 days
Outline: as §1

[21] = system: Nightshade
[22] = system: pigweed (Amaranthus retroflexus); settings: for Plant response rating (0 to 100), Pigweed: Rate 500 g/ha, visual evaluation after 12 to 14 days
Outline: as §1

[23] = Rate 125 g/ha, scale 0 to 100, 0 no effect, 100 complete control
[24] = preemergence, Rate 62 g/ha, scale 0 to 100
[25] = preemergence, Rate 250 g/ha, scale 0 to 100, 0 no effect, 100 complete control
[26] = Rate 250 g/ha, scale 0 to 100, 0 no effect, 100 complete control

COc1cc(N2CCC(n3ccc(C(C)C)n3)C2=O)ccc1Br (stereo not shown) [Compound 140]
Plant response rating, Sunflower [1]: 60
Plant response rating, Sunflower [2]: 30
Plant response rating (0 to 100), Nightshade [3]: 100
Plant response rating, Kochia [4, 23]: 100
Plant response rating, Kochia [4, 24]: 100
Plant response rating (0 to 100), Kochia ([4]; preemergence): 100
Plant response rating, Kochia [4, 25]: 100
Plant response rating, Velvetleaf [5, 23]: 70
Plant response rating, Velvetleaf [5, 24]: 60
Plant response rating (0 to 100), Velvetleaf ([5]; preemergence): 90
Plant response rating, Velvetleaf [5, 25]: 90
Plant response rating, Lambsquarters [6, 23]: 100
Plant response rating, Lambsquarters [6, 24]: 100
Plant response rating (0 to 100), Lambsquarters ([6]; preemergence): 100
Plant response rating, Lambsquarters [6, 25]: 100
Plant response rating, Bermudagrass [7, 23]: 100
Plant response rating, Bermudagrass [7, 24]: 100
Plant response rating (0 to 100 where 0 is no effect and 100 is complete control), Bermudagrass ([7]; preemergence): 100
Plant response rating, Bermudagrass [7, 25]: 100
Plant response rating, Surinam grass [8, 23]: 0
Plant response rating, Surinam grass [8, 24]: 0
Plant response rating (0 to 100), Surinam grass ([8]; preemergence): 100
Plant response rating, Surinam grass [8, 25]: 90
Plant response rating, Goosegrass [9, 23]: 100
Plant response rating, Goosegrass [9, 24]: 100
Plant response rating (0 to 100), Goosegrass ([9]; preemergence): 100
Plant response rating, Goosegrass [9, 25]: 100
Plant response rating, Cocklebur [10, 23]: 30
Plant response rating, Cocklebur [10, 24]: 30
Plant response rating, Cocklebur [10, 25]: 90
Plant response rating, Johnsongrass [11, 23]: 20
Plant response rating, Johnsongrass [11, 24]: 0
Plant response rating (0 to 100), Johnsongrass ([11]; preemergence): 100
Plant response rating, Johnsongrass [11, 25]: 100
Plant response rating, Sunflower [12]: 50
Plant response rating, Crabgrass [13, 23]: 100
Plant response rating, Crabgrass [13, 24]: 100
Plant response rating (0 to 100), Crabgrass ([13]; preemergence): 100
Plant response rating, Crabgrass [13, 25]: 100
Plant response rating, Soybean [14, 23]: 80
Plant response rating, Soybean [14, 24]: 50
Plant response rating (0 to 100), Soybean ([14]; preemergence): 100
Plant response rating, Soybean [14, 25]: 100
Plant response rating, Cupgrass, Woolly [15, 23]: 100
Plant response rating, Cupgrass, Woolly [15, 24]: 100
Plant response rating (0 to 100), Cupgrass, Woolly ([15]; preemergence): 100
Plant response rating, Cupgrass, Woolly [15, 25]: 100
Plant response rating, Ragweed, Common [16, 24]: 100
Plant response rating (0 to 100), Ragweed, Common ([16]; preemergence): 100
Plant response rating, Ragweed, Common [16, 25]: 100
Plant response rating, Foxtail, Giant [17, 23]: 100
Plant response rating, Foxtail, Giant [17, 24]: 100
Plant response rating (0 to 100), Foxtail, Giant ([17]; preemergence): 100
Plant response rating, Foxtail, Giant [17, 25]: 100
Plant response rating, Corn [18, 23]: 20
Plant response rating, Corn [18, 24]: 20
Plant response rating (0 to 100), Corn ([18]; preemergence): 30
Plant response rating, Corn [18, 25]: 30
Plant response rating, Nutsedge [19, 23]: 40
Plant response rating, Nutsedge [19, 24]: 20
Plant response rating (0 to 100), Nutsedge ([19]; preemergence): 70
Plant response rating, Nutsedge [19, 25]: 60
Plant response rating, Morningglory [20, 23]: 90
Plant response rating, Morningglory [20, 24]: 70
Plant response rating (0 to 100), Morningglory ([20]; preemergence): 100
Plant response rating, Morningglory [20, 25]: 100
Plant response rating, Nightshade ([21]; Rate 62 g/ha, scale 0 to 100): 100
Plant response rating, Nightshade [21, 23]: 100
Plant response rating, Nightshade [21, 26]: 100
Plant response rating, Pigweed [22, 23]: 100
Plant response rating, Pigweed [22, 24]: 100
Plant response rating (0 to 100), Pigweed ([22]; preemergence): 100
Plant response rating, Pigweed [22, 25]: 100

COc1cc(N2CCC(n3ccc(C(C)(C)C)n3)C2=O)ccc1Br (stereo not shown) [Compound 141]
Plant response rating, Sunflower [1]: 40
Plant response rating, Sunflower [2]: 30
Plant response rating (0 to 100), Nightshade [3]: 100
Plant response rating, Kochia [4, 23]: 100
Plant response rating, Kochia [4, 24]: 100
Plant response rating (0 to 100), Kochia ([4]; preemergence): 100
Plant response rating, Kochia [4, 25]: 100
Plant response rating, Velvetleaf [5, 23]: 70
Plant response rating, Velvetleaf [5, 24]: 70
Plant response rating (0 to 100), Velvetleaf ([5]; preemergence): 100
Plant response rating, Velvetleaf [5, 25]: 70
Plant response rating, Lambsquarters [6, 23]: 100
Plant response rating, Lambsquarters [6, 24]: 100
Plant response rating (0 to 100), Lambsquarters ([6]; preemergence): 100
Plant response rating, Lambsquarters [6, 25]: 100
Plant response rating, Bermudagrass [7, 23]: 100
Plant response rating, Bermudagrass [7, 24]: 100
Plant response rating (0 to 100 where 0 is no effect and 100 is complete control), Bermudagrass ([7]; preemergence): 100
Plant response rating, Bermudagrass [7, 25]: 100
Plant response rating, Surinam grass [8, 23]: 20
Plant response rating, Surinam grass [8, 24]: 10
Plant response rating (0 to 100), Surinam grass ([8]; preemergence): 100
Plant response rating, Surinam grass [8, 25]: 20
Plant response rating, Goosegrass [9, 23]: 100
Plant response rating, Goosegrass [9, 24]: 100
Plant response rating (0 to 100), Goosegrass ([9]; preemergence): 100
Plant response rating, Goosegrass [9, 25]: 100
Plant response rating, Cocklebur [10, 23]: 60
Plant response rating, Cocklebur [10, 24]: 0
Plant response rating (0 to 100), Cocklebur ([10]; preemergence, Rate 500 g/ha, visual evaluation after 12 to 14 days): 100
Plant response rating, Cocklebur [10, 25]: 70
Plant response rating, Johnsongrass [11, 23]: 0
Plant response rating, Johnsongrass [11, 24]: 0
Plant response rating (0 to 100), Johnsongrass ([11]; preemergence): 100
Plant response rating, Johnsongrass [11, 25]: 0
Plant response rating, Sunflower [12]: 40
Plant response rating, Crabgrass [13, 23]: 100
Plant response rating, Crabgrass [13, 24]: 100
Plant response rating (0 to 100), Crabgrass ([13]; preemergence): 100
Plant response rating, Crabgrass [13, 25]: 100
Plant response rating, Soybean [14, 23]: 100
Plant response rating, Soybean [14, 24]: 70
Plant response rating (0 to 100), Soybean ([14]; preemergence): 100
Plant response rating, Soybean [14, 25]: 100
Plant response rating, Cupgrass, Woolly [15, 23]: 100
Plant response rating, Cupgrass, Woolly [15, 24]: 100
Plant response rating (0 to 100), Cupgrass, Woolly ([15]; preemergence): 100
Plant response rating, Cupgrass, Woolly [15, 25]: 100
Plant response rating, Ragweed, Common [16, 23]: 100
Plant response rating, Ragweed, Common [16, 24]: 100
Plant response rating (0 to 100), Ragweed, Common ([16]; preemergence): 100
Plant response rating, Ragweed, Common [16, 25]: 100
Plant response rating, Foxtail, Giant [17, 23]: 100
Plant response rating, Foxtail, Giant [17, 24]: 100
Plant response rating (0 to 100), Foxtail, Giant ([17]; preemergence): 100
Plant response rating, Foxtail, Giant [17, 25]: 100
Plant response rating, Corn [18, 23]: 30
Plant response rating, Corn [18, 24]: 0
Plant response rating (0 to 100), Corn ([18]; preemergence): 30
Plant response rating, Corn [18, 25]: 30
Plant response rating, Nutsedge [19, 23]: 0
Plant response rating, Nutsedge [19, 24]: 0
Plant response rating (0 to 100), Nutsedge ([19]; preemergence): 50
Plant response rating, Nutsedge [19, 25]: 0
Plant response rating, Morningglory [20, 23]: 100
Plant response rating, Morningglory [20, 24]: 30
Plant response rating (0 to 100), Morningglory ([20]; preemergence): 100
Plant response rating, Morningglory [20, 25]: 100
Plant response rating, Nightshade ([21]; Rate 62 g/ha, scale 0 to 100): 100
Plant response rating, Nightshade [21, 23]: 100
Plant response rating, Nightshade [21, 26]: 100
Plant response rating, Pigweed [22, 23]: 100
Plant response rating, Pigweed [22, 24]: 100
Plant response rating (0 to 100), Pigweed ([22]; preemergence): 100
Plant response rating, Pigweed [22, 25]: 100
